The results in this text go back to patent EP4714948A1, “COMPOUND USED FOR EGFR PROTEIN DEGRADATION, AND USE THEREOF” (TYK Medicines, Inc., priority 2023, dated 2024).

The target in series [1] is EGFR in BAF3-LTC (Baf3-L858R-T780M-C797S) (Homo sapiens, UniProt P00533, C797S/L858R/T790M). In words: EGFR PROTAC HTRF experiment (total EGFR degradation). In kind it is cell-based. Particulars: BAF3-LTC cells, 16 hours incubation. Background: In TR-FRET formats the signal depends on donor and acceptor labels being close together.
Sequence of EGFR in BAF3-LTC (Baf3-L858R-T780M-C797S) (P00533 25-1210 T790M/C797S/L858R): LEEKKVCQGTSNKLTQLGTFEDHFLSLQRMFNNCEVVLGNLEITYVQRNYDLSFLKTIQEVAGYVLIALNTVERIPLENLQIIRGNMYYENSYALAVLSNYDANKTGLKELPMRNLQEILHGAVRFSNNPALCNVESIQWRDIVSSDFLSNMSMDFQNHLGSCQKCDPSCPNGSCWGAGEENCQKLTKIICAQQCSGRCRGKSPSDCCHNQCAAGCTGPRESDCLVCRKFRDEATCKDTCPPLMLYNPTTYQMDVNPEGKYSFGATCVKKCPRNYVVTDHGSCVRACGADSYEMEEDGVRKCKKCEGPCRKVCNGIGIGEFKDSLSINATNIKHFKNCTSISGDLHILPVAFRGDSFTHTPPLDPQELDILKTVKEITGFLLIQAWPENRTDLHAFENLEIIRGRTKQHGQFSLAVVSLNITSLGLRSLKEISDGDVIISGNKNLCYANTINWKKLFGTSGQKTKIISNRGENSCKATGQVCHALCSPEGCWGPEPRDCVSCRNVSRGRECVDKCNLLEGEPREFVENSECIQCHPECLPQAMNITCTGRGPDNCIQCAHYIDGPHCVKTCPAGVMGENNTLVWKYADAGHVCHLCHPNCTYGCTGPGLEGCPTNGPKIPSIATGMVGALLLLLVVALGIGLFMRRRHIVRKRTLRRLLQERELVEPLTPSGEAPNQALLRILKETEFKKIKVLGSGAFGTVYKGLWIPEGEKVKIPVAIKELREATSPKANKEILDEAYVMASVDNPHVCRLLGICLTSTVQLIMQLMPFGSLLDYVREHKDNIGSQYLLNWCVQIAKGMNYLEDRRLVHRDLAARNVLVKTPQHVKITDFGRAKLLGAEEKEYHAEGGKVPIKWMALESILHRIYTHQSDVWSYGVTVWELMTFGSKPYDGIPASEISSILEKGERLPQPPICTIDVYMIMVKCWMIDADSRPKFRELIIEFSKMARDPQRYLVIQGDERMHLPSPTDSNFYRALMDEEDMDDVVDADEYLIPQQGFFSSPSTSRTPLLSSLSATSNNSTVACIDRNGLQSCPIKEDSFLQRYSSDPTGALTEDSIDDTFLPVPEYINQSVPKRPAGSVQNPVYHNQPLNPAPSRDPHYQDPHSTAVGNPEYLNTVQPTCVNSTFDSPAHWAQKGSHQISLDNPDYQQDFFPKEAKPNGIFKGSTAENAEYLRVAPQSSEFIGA
For series [2], the target named is EGFR in BAF3-DTC (Baf3-19del-T780M-C797S) (Homo sapiens, UniProt P00533, C797S/DEL746-750/T790M). The series is described as above. To be noted: BAF3-DTC cells, 16 hours incubation. In kind it is cell-based.
Sequence of EGFR in BAF3-DTC (Baf3-19del-T780M-C797S) (P00533 with tags, fused parts or gaps DEL746-750/T790M/C797S): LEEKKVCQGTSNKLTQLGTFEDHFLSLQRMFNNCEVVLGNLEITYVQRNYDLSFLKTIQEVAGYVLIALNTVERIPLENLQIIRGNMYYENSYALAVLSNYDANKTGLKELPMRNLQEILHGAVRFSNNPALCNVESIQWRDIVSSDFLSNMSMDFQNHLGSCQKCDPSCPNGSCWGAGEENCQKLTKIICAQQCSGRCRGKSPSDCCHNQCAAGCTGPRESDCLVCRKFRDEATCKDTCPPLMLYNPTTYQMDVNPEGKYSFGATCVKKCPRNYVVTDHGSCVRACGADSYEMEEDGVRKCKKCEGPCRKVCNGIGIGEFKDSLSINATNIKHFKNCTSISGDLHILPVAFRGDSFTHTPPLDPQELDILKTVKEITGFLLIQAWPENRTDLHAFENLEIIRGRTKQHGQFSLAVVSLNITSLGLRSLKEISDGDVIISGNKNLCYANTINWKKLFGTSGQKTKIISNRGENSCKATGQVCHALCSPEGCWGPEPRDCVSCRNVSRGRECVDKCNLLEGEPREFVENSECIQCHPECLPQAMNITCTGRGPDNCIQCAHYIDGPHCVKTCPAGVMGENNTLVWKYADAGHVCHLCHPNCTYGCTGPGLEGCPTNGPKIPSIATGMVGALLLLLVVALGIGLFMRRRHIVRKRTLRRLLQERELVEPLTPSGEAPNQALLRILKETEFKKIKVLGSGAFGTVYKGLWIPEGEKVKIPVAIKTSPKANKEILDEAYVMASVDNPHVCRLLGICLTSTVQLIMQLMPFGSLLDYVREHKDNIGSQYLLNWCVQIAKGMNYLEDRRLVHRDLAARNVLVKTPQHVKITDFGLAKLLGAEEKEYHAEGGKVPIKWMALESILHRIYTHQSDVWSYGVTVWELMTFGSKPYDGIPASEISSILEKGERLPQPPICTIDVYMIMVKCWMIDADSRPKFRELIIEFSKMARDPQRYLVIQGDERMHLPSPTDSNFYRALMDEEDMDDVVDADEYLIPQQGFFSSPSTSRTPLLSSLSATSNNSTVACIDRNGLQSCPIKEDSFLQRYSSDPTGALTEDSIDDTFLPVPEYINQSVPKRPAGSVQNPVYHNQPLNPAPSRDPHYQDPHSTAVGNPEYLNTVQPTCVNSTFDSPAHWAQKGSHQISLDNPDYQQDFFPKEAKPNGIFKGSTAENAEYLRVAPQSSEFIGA
Series [3] in a line: Pharmacokinetic test on male SD rats. In kind it is in vivo. To be noted: gavage (p.o.), 10 mg/kg, plasma; for AUC(0-inf) / AUC(0-t) / Cmax / MRT last / Tmax: rat, po. Here is the method:
Healthy adult SD rats, male, a total of 3, 6-8 weeks old; Weighing 200-300 grams.
EDTA-Na2 anticoagulant: 11.2 g of EDTA-Na2 was weighted and placed into a reagent bottle. 100 mL of physiological saline was added and the mixture was shaken until completely dissolved. After preparation, the solution was aliquoted into 1.5 mL centrifuge tubes, each containing approximately 20 uL, for use in whole blood sample collection.
Approximately 10 mg of the test sample was accurately weighed. DMSO accounting for 10% of the total volume was added to dissolve the sample. Subsequently, 0.5% MC solvent accounting for 90% of the total volume was slowly added while stirring. The mixture was sonicated and vortexed evenly, and a visually homogeneous preparation solution was obtained, with a concentration of 1 mg/mL. This solution should be freshly prepared immediately before use.
0.2 mL of the sample was pipetted into a 1.5 mL centrifuge tube and stored at -80°C for concentration analysis of the dosing solution.
Animals were kept in rat cages and fasted for no less than 10 hours on the day before the experiment, but were allowed to drink water. The animals were individually weighed and marked on their tails. Prior to dosing, blank blood samples were collected from each animal via the tail vein.
• Administration route: gavage (p.o.) • Dosage concentration: 1mg/ml • Dosage: 10 mg/kg • Dosage volume: 10 mL/kg
Operation process: The rat was grasped with a left hand protected by a bite-resistant glove and held in an upright position. The gavage needle was inserted through the mouth and advanced towards the pharynx. The needle was advanced gently, ensuring no significant resistance was felt. The drug was then injected into the stomach.
At 0.5 h, 1 h, 2 h, 4 h, 6 h, 8 h, 12 h, and 24 h post-dosing, 0.1-0.2 mL of whole blood was collected from each test animal into EDTA-Na2 anticoagulant tubes. The tubes were mixed by inverting 3-4 times. The samples were centrifuged at 2000 × g and 4 °C for 5 minutes. The upper plasma layer was to separated, promptly transferred to -80 °C for storage until analysis. The blood was collected via tail vein.
A quantitative detection method for the test compound was established using a Shimadzu liquid chromatography system and a Triple Quad™ 6500+ AB mass spectrometry (MS) system. This method was used to analyze the concentration of the parent drug in plasma. The variation of the analysis results was controlled using quality control (QC) samples, and the accuracy of the QC samples was required to be within the range of 80%-120%.
The main pharmacokinetic parameters were calculated using the non-compartmental model (NCA) with the WinNonlin Phoenix software. These parameters include: area under the concentration-time curve (AUC(0-t) and AUC(0-∞)), elimination half-life (T1/2), maximum plasma concentration (Cmax), and time to reach maximum plasma concentration (Tmax), etc.

The term DC50 denotes the concentration giving 50% degradation. A low value points to a more potent degrader. As a reminder, the Dmax is the largest share of the target that was removed. A high value points to deep degradation. As usually defined, the AUC(0-inf) is the area under the concentration-time curve extrapolated to infinity. A higher AUC(0-inf) goes with more exposure. The term AUC(0-t) denotes the area under the concentration-time curve up to a stated or last time point. High values mean more exposure, low ones less exposure. Broadly, the Cmax is the maximum level reached in the sampled fluid or tissue. For orientation: MRT last means a mean duration of stay, worked out from the concentration-time curve. Usually Tmax stands for the time from dosing to the highest level.

SMILES strings stand for the structures.

In series [1], `CCc1cc(Nc2ncc(Cl)c(Nc3ccccc3C(=O)NC)n2)c(OC)cc1N1CCN(C(=O)CN2CCC(c3ccc4c(N5CCC(=O)NC5=O)nn(C)c4c3)C(F)(F)C2)CC1` (stereo not shown) [Compound T-013] had a DC50 of at most 10 nM and a Dmax of 70 to 100%. In series [2], this molecule gave a DC50 of 10 to 100 nM and a Dmax of 70 to 100%. Besides, in series [3], the HL_ came to 3.09 h, the AUC(0-inf) amounted to 6730 ng·h/mL, the AUC(0-t) was 6690 ng·h/mL and the highest concentration (Cmax) is 899 ng/mL. Besides, in series [3], the MRT last was found to be 6.27 h and the Tmax amounted to 4 h.
Consider `CCc1cc(Nc2ncc(Br)c(Nc3ccccc3C(=O)NC)n2)c(OC)cc1N1CCN(C(=O)CN2CCC(c3ccc4c(N5CCC(=O)NC5=O)nn(C)c4c3)C(F)(F)C2)CC1` (stereo not shown) [Compound T-014], for which, in series [1], the DC50 is at most 10 nM and the Dmax is 70 to 100%. In series [2], this molecule yielded a DC50 of at most 10 nM and a Dmax of 70 to 100%. In series [3], this molecule had an HL_ of 3.37 h, an area under the curve AUC(0-inf) of 4560 ng·h/mL, an AUC(0-t) of 4510 ng·h/mL and a Cmax of 721 ng/mL. Moreover, in series [3], the MRT last came to 5.88 h and the Tmax is 3.33 h.
In series [1], `CCc1cc(Nc2ncc(Cl)c(Nc3ccccc3C(=O)NC)n2)c(OC)cc1N1CCN(C(=O)CN2CCC(c3c(F)cc(NC4CCC(=O)NC4=O)cc3F)CC2)CC1` (stereo not shown) [Compound T-068] gave a DC50 of 10 to 100 nM and a Dmax of 70 to 100%. Besides, in series [2], the DC50 was 10 to 100 nM and the Dmax lay in the range of 70 to 100%.
For the molecule `CCc1cc(Nc2ncc(Cl)c(Nc3ccccc3C(=O)NC)n2)c(OC)cc1N1CCN(C(=O)CN2CCC(c3ccc(NC4CCC(=O)NC4=O)cc3C(F)(F)F)CC2)CC1` (stereo not shown) [Compound T-074], in series [3], the HL_ was 7.97 h, the AUC(0-inf) was found to be 20200 ng·h/mL, the AUC(0-t) came out at 16900 ng·h/mL and the Cmax amounted to 1120 ng/mL. In series [3], the MRT last was found to be 9.66 h and the Tmax is 5.33 h.
Consider `CCc1cc(Nc2ncc(Cl)c(Nc3ccccc3C(=O)NC)n2)c(OC)cc1N1CCN(C(=O)CN2CCC(c3ccc(NC4CCC(=O)NC4=O)cc3)CC2)[C@@H](C)C1` (stereo partly shown) [Compound T-078], for which, in series [3], the HL_ was 5.45 h, the AUC(0-inf) stood at 10200 ng·h/mL, the AUC(0-t) is 8600 ng·h/mL and the Cmax came out at 714 ng/mL. Besides, in series [3], the mean residence time (MRT last) is 9.06 h and the Tmax worked out at 6 h.
`CCc1cc(Nc2ncc(Cl)c(Nc3ccccc3C(=O)NC)n2)c(OC)cc1N1CCN(C(=O)CN2CCC(c3ccc(NC4CCC(=O)NC4=O)cc3C)CC2)CC1` (stereo not shown) [Compound T-090]: the DC50 was 10 to 100 nM in series [1] and 100 to 1000 nM in series [2]. The Dmax in series [1] and in series [2] was 70 to 100% each time.
On to `COc1cc(N2CCN(C(=O)CN3CCC(c4ccc(NC5CCC(=O)NC5=O)cc4)CC3)CC2)ccc1Nc1ncc(Cl)c(Nc2ccccc2C(C)=O)n1` (stereo not shown) [Control Compound 1, reference compound], for which, in series [3], the HL_ was 3.47 h, the total exposure AUC(0-inf) is 2090 ng·h/mL, the AUC(0-t) was determined as 2060 ng·h/mL and the highest level (Cmax) was 227 ng/mL. In addition, in series [3], the MRT last was 7.32 h and the Tmax came to 5.33 h.
